Data taken from ChEMBL document CHEMBL5344478, “Cytochrome bd oxidase: an emerging anti-tubercular drug target” (RSC Med Chem, 2024).

System: Mycobacterium tuberculosis variant bovis
Test: Antibacterial activity against Mycobacterium bovis BCG assessed as reduction in bacterial growth
Type: functional, organism-based

Row | Structure (SMILES) | IC50 [nM]
1 | Fc1ccc2c(NCCc3ccc(OC(F)(F)F)cc3)ncnc2c1 | 800
2 | CC(C)(C)c1ccc(CCNc2ncnc3ccsc23)cc1 | 5800
3 | CC(C)(C)c1ccc(CCNc2ncnc3ccccc23)cc1 | 800
